Experimental data from patent US20250144131A1, “POLYSACCHARIDE COMPOUND WITH A DEFINED MOLECULAR STRUCTURE FOR THE TREATMENT OF PULMONARY FIBROSIS” (SHENZHEN YANDAI INVESTMENT CO., LTD, priority 2023, published 2025).
Marks after values point to notes of the source that are not given here.

Experiments:
[1] = Mortality and body weight of 4T1 breast tumor-bearing mice; assay type: in vivo, BALB/c mice
Description: A suspension of 4T1 breast cancer cells was injected subcutaneously into the left shoulder back of 55 healthy female BALB/c mice to create solid tumor models. When the mean tumor volume reached approximately 240 mm^3, the mice were randomized into groups based on tumor volume, and were administered the respective drugs or drug solvents via oral gavage or intraperitoneal injection over 25 consecutive days. Longest and shortest diameters of tumors were measured every three days to calculate tumor volume, and mouse weights were recorded every three days. At the end of the experiment, tumors, spleens, and thymuses were harvested and weighed to calculate tumor, spleen, and thymus indices.

[2] = tested on: H22 hepatoma solid tumors; assay: Antitumor effect in H22-bearing mice (tumor volume, relative tumor growth inhibition rate, tumor index, tumor growth inhibition rate); assay type: in vivo, C57 mice
Description: Longest and shortest diameters of tumors were measured every three days to calculate tumor volume, and mouse weights were recorded every three days. At the end of the experiment, tumors, spleens, and thymuses were harvested and weighed to calculate tumor, spleen, and thymus indices. […] Where TRTV is the relative tumor volume in the experimental group, and CRTV is the relative tumor volume in the model control group. Relative tumor volume (RTV)=Vt/V0, where Vt is the tumor volume on day t of dosing, and V0 is the tumor volume at the time of grouping. Evaluation criteria: […] Where T represents the average tumor weight in the treatment group, and C represents the average tumor weight in the model control group. Evaluation criteria: […]

[3] = tested on: Liver cancer (H22) cells, orthotopic; assay: Tumors in orthotopic H22-bearing mice by small animal in vivo imaging; design: species or system C57 mice; conditions: for Tumor (in vivo imaging): Kanglaite soft capsule 1404 mg/kg
Text: Liver cancer (H22) cells, labeled with Luc fluorescent marker at a concentration of 1×10^7 cells/mL, were initially inoculated into the peritoneal cavity of 8 male C57 mice. After the development of ascites, the ascitic fluid was aseptically extracted, washed with HBSS buffer, centrifuged to discard the supernatant, and stained with Trypan Blue, and cells in the ascitic fluid were counted under a microscope. The cell concentration was adjusted to […] with HBSS buffer and inoculated into the right hepatic region of 51 male C57 mice, at a volume of 10 μL per mouse, to prepare the orthotopic tumor-bearing mice. One week later, the liver tumor formation in mice was detected using a small animal in vivo imaging system. Based on tumor size, the mice were randomized into groups: model control group, cisplatin group (4 mg/kg), Kanglaite soft capsule group (1,404 mg/kg), cisplatin+Kanglaite soft capsule group (4+1,404 mg/kg), cisplatin+GLP-4 low-dose group (4+130 mg/kg), and cisplatin+GLP-4 high-dose group (4+1,170 mg/kg), with 6 mice per group. An additional 6 mice served as the normal control group. The normal control group and the model control group were administered pure water by oral gavage. The chemotherapy group received intraperitoneal injections of cisplatin, and the other groups were administered their respective drug solutions by oral gavage (20 mL/kg) or intraperitoneal injection (10 mL/kg), once daily for 14 consecutive days. After the last dose, blood was collected from the orbital plexus to test blood WBC, RBC, liver and kidney function indicators (ALT, AST, BUN, CRE), and CD3^+/CD4^+, CD3^+/CD8^+ ratios. The spleen, thymus, and tumors were weighed to calculate organ coefficients.
Tumor volume measurement: Tumor volume changes were measured weekly using small animal in vivo imaging technology.

[4] = Mortality and body weight of LLC-bearing mice
Description: LLC cells in logarithmic growth phase at 1×10^7/mL were inoculated at 0.2 mL into the right axilla of 10 purchased normal male C57 mice. Tumor growth was monitored, and tumor-bearing mice were prepared. Once the tumor volume in tumor-bearing mice exceeded 200 mm^3, the tumor tissue was aseptically harvested to prepare a tissue cell suspension. This was mixed at a 1:1 (V:V) ratio with culture medium to create a tumor tissue homogenate. This homogenate was injected into the right axilla of 60 male C57 mice at 0.2 mL per mouse. When the tumor volume in these tumor-bearing mice exceeded 100 mm^3, mice with well-grown tumors without ulceration were selected and randomized into groups based on tumor volume as follows: model control group, cisplatin group (4 mg/kg), Kanglaite soft capsule group (1,404 mg/kg), cisplatin+Kanglaite soft capsule group (4+1,404 mg/kg), cisplatin+GLP-4 low-dose group (4+130 mg/kg), and cisplatin+GLP-4 high-dose group (4+1,170 mg/kg), with 8 mice per group. Additionally, 8 mice were selected as a normal control group. The cisplatin group received intraperitoneal injections of cisplatin, and the other groups were administered their respective drug solutions by gavage (20 mL/kg) or intraperitoneal injection (10 mL/kg), once daily for 27 consecutive days. After the last dose, blood was collected from the orbital plexus to test blood WBC, RBC, liver and kidney function indicators (ALT, AST, BUN, CRE), and CD3^+, CD4^+, and CD8^+ levels. Bone marrow smears were examined, and spleens, thymuses, and tumors were weighed. Histopathological examinations were conducted on the tumor, spleen, stomach, and kidneys.
Evaluation of quality of life and survival time in animals: Throughout the experimental process, detailed records were kept for each group of animals regarding weight, mortality, mental state, fur color, smoothness of fur, and fecal form, including incidences of diarrhea (if any).

[5] = tested on: CD4+ and CD8+ lymphocyte subtypes; assay: Blood CD3+/CD4+ and CD3+/CD8+ ratios by flow cytometry in orthotopic H22-bearing mice; assay type: in vivo, C57 mice; conditions: cisplatin 4 mg/kg, Kanglaite soft capsule 1404 mg/kg
Description: CD4^+ and CD8^+ content measurement: After the last dose, lymphocyte subtypes CD3^+/CD4^+ and CD3^+/CD8^+ in the blood were measured using flow cytometry.

[6] = cisplatin 4, Kanglaite 1404, GLP-4 low-dose 130 mg/kg
[7] = 8 per group, cisplatin 4, Kanglaite 1404, GLP-4 low-dose 130 mg/kg

SMILES: N.N.[Cl][Pt][Cl] [Cisplatin, cisplatin]
- Number of deaths ([1]; 10 per group, cisplatin 4 mg/kg): 0
- Survival time ([1]; 25 days of dosing, cisplatin 4 mg/kg): 25 ± 0 days
- Weight ([1]; D0, cisplatin 4 mg/kg): 18.3 ± 1.3 g
- Weight ([1]; D3, cisplatin 4 mg/kg): 17.7 ± 1.1 g
- Weight ([1]; D6, cisplatin 4 mg/kg): 15.5 ± 1*^ g
- Weight ([1]; D9, cisplatin 4 mg/kg): 15 ± 1.4 g
- Weight ([1]; D12, cisplatin 4 mg/kg): 13.8 ± 0.9 g
- Weight ([1]; D15, cisplatin 4 mg/kg): 15 ± 1.1 g
- Weight ([1]; D19, cisplatin 4 mg/kg): 16.8 ± 1.4 g
- Weight ([1]; D22, cisplatin 4 mg/kg): 18 ± 1.5 g
- Weight ([1]; D25, cisplatin 4 mg/kg): 18.1 ± 1.6 g
- Mortality rate ([1]; cisplatin 4 mg/kg): 0.0%
- Relative tumor growth inhibition rate (compared to model control group) ([2]; D3, cisplatin 3, GLP-4 low-dose 50 mg/kg): 32.9%
- Relative tumor growth inhibition rate (compared to model control group) ([2]; D6, cisplatin 3, GLP-4 low-dose 50 mg/kg): 39.7%
- Relative tumor growth inhibition rate (compared to model control group) ([2]; D9, cisplatin 3, GLP-4 low-dose 50 mg/kg, 50 mg/kg): 66.5^+ %
- Relative tumor growth inhibition rate (compared to model control group) ([2]; D9, cisplatin 3, GLP-4 low-dose 50 mg/kg, listed as cisplatin, 50 mg/kg): 66.5%
- Relative tumor growth inhibition rate (compared to model control group) ([2]; D12, cisplatin 3, GLP-4 low-dose 50 mg/kg, 50 mg/kg): 70.6^+ %
- Relative tumor growth inhibition rate (compared to model control group) ([2]; D12, cisplatin 3, GLP-4 low-dose 50 mg/kg, listed as cisplatin, 50 mg/kg): 70.6%
- Relative tumor growth inhibition rate (compared to model control group) ([2]; D15, cisplatin 3, GLP-4 low-dose 50 mg/kg, 50 mg/kg): 69.1^+ %
- Relative tumor growth inhibition rate (compared to model control group) ([2]; D15, cisplatin 3, GLP-4 low-dose 50 mg/kg, listed as cisplatin, 50 mg/kg): 69.1%
- Relative tumor growth inhibition rate (compared to model control group) ([2]; D18, cisplatin 3, GLP-4 low-dose 50 mg/kg, 50 mg/kg): 81.3^+ %
- Relative tumor growth inhibition rate (compared to model control group) ([2]; D18, cisplatin 3, GLP-4 low-dose 50 mg/kg, listed as cisplatin, 50 mg/kg): 81.3%
- Relative tumor growth inhibition rate (compared to model control group) ([2]; D21, cisplatin 3, GLP-4 low-dose 50 mg/kg, 50 mg/kg): 83.9^+ %
- Relative tumor growth inhibition rate (compared to model control group) ([2]; D21, cisplatin 3, GLP-4 low-dose 50 mg/kg, listed as cisplatin, 50 mg/kg): 83.9%
- Relative tumor growth inhibition rate (compared to model control group) ([2]; D24, cisplatin 3, GLP-4 low-dose 50 mg/kg, 50 mg/kg): 85.3^+ %
- Relative tumor growth inhibition rate (compared to model control group) ([2]; D24, cisplatin 3, GLP-4 low-dose 50 mg/kg, listed as cisplatin, 50 mg/kg): 85.3%
- Relative tumor growth inhibition rate (compared to model control group) ([2]; D27, cisplatin 3, GLP-4 low-dose 50 mg/kg, 50 mg/kg): 84.3^+ %
- Relative tumor growth inhibition rate (compared to model control group) ([2]; D27, cisplatin 3, GLP-4 low-dose 50 mg/kg, listed as cisplatin, 50 mg/kg): 84.3%
- Tumor growth inhibition rate (%) vs. the model control group ([2]; cisplatin group): 88.7%
- Tumor index ([2]; cisplatin group): 2.8 ± 2.1^+ %
- Tumor growth inhibition rate compared to the model control group ([2]; tumor weight, cisplatin 3, GLP-4 low-dose 50 mg/kg): 88.7%
- Tumor (in vivo imaging) ([3]; W0, cisplatin 4 mg/kg): 3756000 P/s/cm^2/sr
- Tumor (in vivo imaging) ([3]; W1, cisplatin 4 mg/kg): 12898500 P/s/cm^2/sr
- Tumor (in vivo imaging) ([3]; W2, cisplatin 4 mg/kg): 11871333 P/s/cm^2/sr
- Tumors compared to the model control group (in vivo imaging) [3, 6]: significantly decreased on W2
- Number of deaths [4, 7]: 0
- Number of surviving animals [4, 7]: 8
- Weight ([4]; D1, cisplatin 4, Kanglaite 1404, GLP-4 low-dose 130 mg/kg): 14.1 ± 0.7 g
- Weight ([4]; D4, cisplatin 4, Kanglaite 1404, GLP-4 low-dose 130 mg/kg): 14.5 ± 1.1 g
- Mortality rate [4, 6]: 0%
- CD3^+/CD4^+ [5]: 4.26 ± 0.04
- CD3^+/CD8^+ [5]: 4.21 ± 0.81
